Measurements from ChEMBL document CHEMBL5537178, “Discovery of TP0628103: A Highly Potent and Selective MMP-7 Inhibitor with Reduced OATP-Mediated Clearance Designed by Shifting Isoelectric Points” (J Med Chem, 2024).
pIC50: −log10 of the molar value. The source made the active and inactive calls. The rule behind the calls is not given here.

What was measured:
CYP2B6 = target: T1, CYP2B6 (Homo sapiens, UniProt P20813); assay: Inhibition of CYP2B6 in human liver microsomes at 10 uM by LC-MS/MS analysis relative to control; assay type: ADME, Microsome
T1 sequence (P20813 whole entry): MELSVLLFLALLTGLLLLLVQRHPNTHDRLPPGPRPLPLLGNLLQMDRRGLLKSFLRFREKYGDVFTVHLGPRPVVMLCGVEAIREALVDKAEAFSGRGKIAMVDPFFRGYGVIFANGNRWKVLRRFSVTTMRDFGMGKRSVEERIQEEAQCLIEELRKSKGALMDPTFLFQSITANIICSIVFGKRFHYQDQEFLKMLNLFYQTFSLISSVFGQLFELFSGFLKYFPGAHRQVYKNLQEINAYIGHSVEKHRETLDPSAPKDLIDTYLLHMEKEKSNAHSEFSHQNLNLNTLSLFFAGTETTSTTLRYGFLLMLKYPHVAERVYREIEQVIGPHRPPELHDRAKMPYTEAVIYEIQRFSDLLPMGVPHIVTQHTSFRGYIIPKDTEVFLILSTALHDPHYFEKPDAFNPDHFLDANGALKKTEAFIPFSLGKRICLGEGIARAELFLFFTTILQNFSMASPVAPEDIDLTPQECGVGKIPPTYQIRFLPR

CYP2D6 [1] = target: T2, CYP2D6 (Homo sapiens, UniProt P10635); assay: Time dependent inhibition of CYP2D6 in human liver microsomes at 10 uM by LC-MS/MS analysis relative to control; assay type: ADME, Microsome; conditions: read-out: TDI
Stromelysin-1 = Stromelysin-1 (Homo sapiens, UniProt P08254); assay: Inhibition of recombinant human MMP3 assessed as enzyme activity by measuring fluorescence using fluorogenic peptide substrate
[2] = Fraction unbound in rat; assay type: ADME
[3] = target: Matrix metalloproteinase-9 (Homo sapiens, UniProt P14780); assay: Inhibition of recombinant human MMP9 assessed as enzyme activity by measuring fluorescence using fluorogenic peptide substrate
[4] = Plasma unbound drug concentration at steady state in UUO surgery-induced renal fibrosis C57BL/6J mouse model at 0.1 mg/kg/day, sc administered with mini osmotic pump measured after 3 days; assay type: ADME, organism-based; conditions: in vivo, 72 h, time 3 day
[5] = Plasma unbound drug concentration at steady state in UUO surgery-induced renal fibrosis C57BL/6J mouse model at 3 mg/kg/day, sc administered with mini osmotic pump measured after 3 days; assay type: ADME, organism-based; conditions: in vivo, 72 h, time 3 day
[6] = Plasma unbound drug concentration at steady state in UUO surgery-induced renal fibrosis C57BL/6J mouse model at 1 mg/kg/day, sc administered with mini osmotic pump measured after 3 days; assay type: ADME, organism-based; conditions: in vivo, 72 h, time 3 day
CYP3A = CYP3A (Homo sapiens, UniProt P08684+P20815+P24462+Q9HB55); assay: Inhibition of CYP3A in human liver microsomes using midazolam as substrate at 10 uM by LC-MS/MS analysis relative to control; assay type: ADME, Microsome; conditions: probe midazolam
Neutrophil collagenase = Neutrophil collagenase (Homo sapiens, UniProt P22894); assay: Inhibition of recombinant human MMP8 assessed as enzyme activity by measuring fluorescence using fluorogenic peptide substrate
[7] = Plasma unbound drug concentration at steady state in UUO surgery-induced renal fibrosis C57BL/6J mouse model at 0.3 mg/kg/day, sc administered with mini osmotic pump measured after 3 days; assay type: ADME, organism-based; conditions: in vivo, 72 h, time 3 day
[8] = Chemical stability of the compound in pH 4 aqueous solution assessed as degradation by measuring residual rate incubated for 24 hrs at 65 degC by HPLC analysis; assay type: physicochemical; conditions: read-out: Activity
[9] = Inhibition of recombinant mouse MMP1 assessed as enzyme activity by measuring fluorescence using fluorogenic peptide substrate
[10] = Volume of distribution at steady state in cynomolgus monkey at 1 mg/kg, iv; assay type: ADME, organism-based, Macaca fascicularis; conditions: in vivo, read-out: Vdss
[11] = Chemical stability of the compound in pH 7.4 aqueous solution assessed as degradation by measuring residual rate incubated for 24 hrs at 65 degC by HPLC analysis; assay type: physicochemical; conditions: read-out: Activity
Mus musculus = assay: Antifibrotic effect in UUO surgery-induced renal fibrosis C57BL/6J mouse model assessed as reduction in renal collagen at 0.3 to 3 mg/kg/day, sc administered with mini osmotic pump measured after 7 days; assay type: functional, organism-based; conditions: dose 0.3-3 mg/kg/day, time 7.0 day
[12] = Chemical stability of the compound in pH 4 aqueous solution assessed as degradation by measuring residual rate incubated measured after 2 weeks at 65 degC by HPLC analysis; assay type: physicochemical; conditions: read-out: Stability
CYP2C19 = CYP2C19 (Homo sapiens, UniProt P33261); assay: Time dependent inhibition of CYP2C19 in human liver microsomes at 10 uM by LC-MS/MS analysis relative to control; assay type: ADME, Microsome; conditions: read-out: TDI
CYP2C8 = target: T3, CYP2C8 (Homo sapiens, UniProt P10632); assay: Time dependent inhibition of CYP2C8 in human liver microsomes at 10 uM by LC-MS/MS analysis relative to control; assay type: ADME, Microsome; conditions: read-out: TDI
T3 sequence (P10632 whole entry): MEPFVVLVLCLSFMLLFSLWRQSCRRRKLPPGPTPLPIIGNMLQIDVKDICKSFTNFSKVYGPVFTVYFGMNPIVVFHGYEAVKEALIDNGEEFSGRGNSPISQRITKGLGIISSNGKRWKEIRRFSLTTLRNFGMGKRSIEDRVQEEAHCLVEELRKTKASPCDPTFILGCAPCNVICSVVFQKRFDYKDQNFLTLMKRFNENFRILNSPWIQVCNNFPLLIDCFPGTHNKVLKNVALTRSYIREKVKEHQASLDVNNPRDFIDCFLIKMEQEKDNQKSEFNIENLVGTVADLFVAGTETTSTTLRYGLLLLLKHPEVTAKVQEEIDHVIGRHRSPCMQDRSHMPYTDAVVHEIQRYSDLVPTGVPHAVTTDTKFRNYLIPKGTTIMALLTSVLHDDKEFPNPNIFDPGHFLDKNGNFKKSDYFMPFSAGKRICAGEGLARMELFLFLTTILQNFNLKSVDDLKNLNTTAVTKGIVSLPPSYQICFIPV

CYP1A2 = target: T4, CYP1A2 (Homo sapiens, UniProt P05177); assay: Inhibition of CYP1A2 in human liver microsomes at 10 uM by LC-MS/MS analysis relative to control; assay type: ADME, Microsome
T4 sequence (P05177 whole entry): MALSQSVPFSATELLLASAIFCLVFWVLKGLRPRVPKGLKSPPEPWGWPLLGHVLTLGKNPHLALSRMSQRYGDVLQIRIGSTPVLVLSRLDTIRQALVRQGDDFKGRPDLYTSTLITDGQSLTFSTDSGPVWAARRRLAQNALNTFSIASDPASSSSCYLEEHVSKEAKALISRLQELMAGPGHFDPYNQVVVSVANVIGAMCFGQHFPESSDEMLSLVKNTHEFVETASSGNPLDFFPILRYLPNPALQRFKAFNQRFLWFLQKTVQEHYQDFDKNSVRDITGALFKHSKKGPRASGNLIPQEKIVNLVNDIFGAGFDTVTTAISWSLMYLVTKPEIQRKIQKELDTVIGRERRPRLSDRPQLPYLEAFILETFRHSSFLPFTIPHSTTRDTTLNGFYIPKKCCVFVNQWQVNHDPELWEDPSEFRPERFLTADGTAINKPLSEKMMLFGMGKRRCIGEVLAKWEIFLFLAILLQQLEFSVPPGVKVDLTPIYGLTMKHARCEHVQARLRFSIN

CYP2D6 [13] = target: T2, CYP2D6; assay: Inhibition of CYP2D6 in human liver microsomes at 10 uM by LC-MS/MS analysis relative to control; assay type: ADME, Microsome

T2 sequence (P10635 whole entry): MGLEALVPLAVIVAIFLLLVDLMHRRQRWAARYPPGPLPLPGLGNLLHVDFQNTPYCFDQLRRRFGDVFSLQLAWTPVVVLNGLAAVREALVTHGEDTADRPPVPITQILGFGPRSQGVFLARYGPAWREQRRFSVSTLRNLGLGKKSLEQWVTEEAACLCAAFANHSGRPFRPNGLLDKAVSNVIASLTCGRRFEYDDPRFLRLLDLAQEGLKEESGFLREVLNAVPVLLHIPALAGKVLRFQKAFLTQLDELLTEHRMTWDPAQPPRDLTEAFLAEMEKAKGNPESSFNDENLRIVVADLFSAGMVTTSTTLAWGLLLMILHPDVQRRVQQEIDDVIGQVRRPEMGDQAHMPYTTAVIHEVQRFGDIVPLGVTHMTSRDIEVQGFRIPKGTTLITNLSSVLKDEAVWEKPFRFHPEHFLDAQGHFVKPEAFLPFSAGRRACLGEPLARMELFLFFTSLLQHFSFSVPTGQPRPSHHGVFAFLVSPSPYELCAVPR
Sequence of CYP2C19 (P33261 whole entry): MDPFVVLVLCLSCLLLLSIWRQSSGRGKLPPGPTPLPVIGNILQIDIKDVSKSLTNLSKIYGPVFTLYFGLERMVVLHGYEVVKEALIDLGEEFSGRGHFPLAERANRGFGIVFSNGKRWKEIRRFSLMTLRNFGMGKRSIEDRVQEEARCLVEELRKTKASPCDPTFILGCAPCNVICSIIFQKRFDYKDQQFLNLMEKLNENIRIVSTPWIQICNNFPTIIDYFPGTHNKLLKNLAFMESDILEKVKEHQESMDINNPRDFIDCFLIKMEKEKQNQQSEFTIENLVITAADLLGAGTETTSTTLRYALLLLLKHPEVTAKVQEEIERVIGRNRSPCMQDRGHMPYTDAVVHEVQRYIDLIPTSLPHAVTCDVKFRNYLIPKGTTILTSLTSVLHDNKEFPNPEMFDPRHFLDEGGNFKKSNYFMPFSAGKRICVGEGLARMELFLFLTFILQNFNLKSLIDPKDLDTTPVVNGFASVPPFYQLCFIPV
Sequence of Neutrophil collagenase (P22894 whole entry): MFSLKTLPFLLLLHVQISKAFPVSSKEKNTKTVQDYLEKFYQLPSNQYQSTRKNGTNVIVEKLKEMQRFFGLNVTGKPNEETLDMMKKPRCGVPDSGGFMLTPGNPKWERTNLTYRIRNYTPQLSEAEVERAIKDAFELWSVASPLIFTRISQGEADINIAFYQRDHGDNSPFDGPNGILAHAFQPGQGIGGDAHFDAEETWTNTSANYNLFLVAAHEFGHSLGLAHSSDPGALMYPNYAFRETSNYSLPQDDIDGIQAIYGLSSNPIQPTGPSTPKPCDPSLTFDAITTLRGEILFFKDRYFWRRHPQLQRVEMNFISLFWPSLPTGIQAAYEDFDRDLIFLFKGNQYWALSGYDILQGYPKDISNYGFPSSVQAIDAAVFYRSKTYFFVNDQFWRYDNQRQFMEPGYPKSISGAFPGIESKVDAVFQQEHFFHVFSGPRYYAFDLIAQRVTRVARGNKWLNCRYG
Sequence of Matrix metalloproteinase-9 (P14780 whole entry): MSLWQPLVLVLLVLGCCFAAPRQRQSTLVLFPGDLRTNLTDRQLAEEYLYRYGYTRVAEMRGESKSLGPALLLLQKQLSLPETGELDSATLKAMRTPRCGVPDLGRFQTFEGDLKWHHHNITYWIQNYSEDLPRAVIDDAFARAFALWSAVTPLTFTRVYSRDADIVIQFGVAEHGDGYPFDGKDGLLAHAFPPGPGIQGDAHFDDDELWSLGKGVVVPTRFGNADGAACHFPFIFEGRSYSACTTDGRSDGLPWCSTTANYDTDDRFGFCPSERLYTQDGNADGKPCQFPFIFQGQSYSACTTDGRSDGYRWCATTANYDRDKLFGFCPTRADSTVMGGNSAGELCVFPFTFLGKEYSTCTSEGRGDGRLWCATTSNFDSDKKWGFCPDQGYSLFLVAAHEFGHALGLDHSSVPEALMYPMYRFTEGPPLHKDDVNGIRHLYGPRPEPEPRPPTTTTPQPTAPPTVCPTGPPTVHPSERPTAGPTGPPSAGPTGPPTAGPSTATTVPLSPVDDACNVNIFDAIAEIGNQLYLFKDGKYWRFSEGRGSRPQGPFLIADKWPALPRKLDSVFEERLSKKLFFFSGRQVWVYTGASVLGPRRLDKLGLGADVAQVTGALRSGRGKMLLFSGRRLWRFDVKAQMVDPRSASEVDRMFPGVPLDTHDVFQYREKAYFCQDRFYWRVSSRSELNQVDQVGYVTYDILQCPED
Sequence of Stromelysin-1 (P08254 whole entry): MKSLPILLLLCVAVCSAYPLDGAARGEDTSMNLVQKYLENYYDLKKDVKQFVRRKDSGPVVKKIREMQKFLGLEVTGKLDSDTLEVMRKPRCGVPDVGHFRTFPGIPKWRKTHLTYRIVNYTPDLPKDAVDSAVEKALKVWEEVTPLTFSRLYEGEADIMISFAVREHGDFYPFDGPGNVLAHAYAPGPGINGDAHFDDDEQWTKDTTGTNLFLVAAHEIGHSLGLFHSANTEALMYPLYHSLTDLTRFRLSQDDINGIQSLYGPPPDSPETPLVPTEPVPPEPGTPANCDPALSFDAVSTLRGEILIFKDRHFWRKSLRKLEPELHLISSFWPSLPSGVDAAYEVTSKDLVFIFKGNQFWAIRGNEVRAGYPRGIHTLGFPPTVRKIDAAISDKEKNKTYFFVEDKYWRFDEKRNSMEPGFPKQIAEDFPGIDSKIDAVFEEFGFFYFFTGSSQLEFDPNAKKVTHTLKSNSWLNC

With CC(C)(C)[C@H](NC(=O)[C@H](Cc1ccncc1)NC(=O)CNC(=O)CC[C@H](NS(=O)(=O)c1ccc(Cl)c(C(F)(F)F)c1)C(=O)O)C(=O)Nc1ccc(C(=O)N2CCC(C(=O)N[C@H](CCCCN)C(=O)N3CC[C@H](N)C3)CC2)cc1 the inhibition at 10 µM (CYP2B6) was -6.6%, the inhibition at 10 µM (CYP2D6 [1]) was -2.9% and the pIC50 (Stromelysin-1) was less than 5.00. For the same molecule, the fraction unbound [2] was 0.178, the pIC50 [3] was less than 5.00 and the “Cp(f)” value [4] was 1.32 nM. The “Cp(f)” value [5] was 31 nM, the “Cp(f)” value [6] was 15.6 nM and the inhibition at 10 µM (CYP3A) was 6%. For the same molecule, the pIC50 (Neutrophil collagenase) was less than 5.00, the “Cp(f)” value [7] was 6.56 nM and the remaining at 24 h [8] was 101%. For the same molecule, the pIC50 [9] was 8.39, the Vd [10] was 0.145 L/kg and the remaining at 24 h [11] was 97.9%. For the same molecule, the Activity (Mus musculus) was “Active”, the remaining at 336 h [12] was 98.2% and the inhibition at 10 µM (CYP2C19) was 4.8%. The inhibition at 10 µM (CYP2C8) was 9.1%, the inhibition at 10 µM (CYP1A2) was 3.2% and the inhibition at 10 µM (CYP2D6 [13]) was 6.4%.
